Laboratory results: publication PMC5218480 (PLoS ONE, 2017)

System: MV-4-11 cells
Assay: Gene expression microarray analysis (Affymetrix PrimeView) and GSEA
Type: cell-based, human
Set-up: RFU PODN (11730768_x_at) / Fold change /veh PODN (11730768_x_at) / RFU LINC00158 (11744669_a_at) / Fold change /veh LINC00158 (11744669_a_at) / RFU DUSP10 (11751237_a_at) / Fold change /veh DUSP10 (11751237_a_at) / RFU ID3 (11757404_x_at) / Fold change /veh ID3 (11757404_x_at) / RFU PLEKHG5 (11737974_s_at) / Fold change /veh PLEKHG5 (11737974_s_at) / RFU LRRC4B (11730491_at) / Fold change /veh LRRC4B (11730491_at) / RFU GIMAP4 (11747438_a_at) / Fold change /veh GIMAP4 (11747438_a_at) / RFU KRT8 (11758183_x_at) / Fold change /veh KRT8 (11758183_x_at) / RFU CNN1 (11734310_a_at) / Fold change /veh CNN1 (11734310_a_at) / RFU VPS37D (11726825_at) / Fold change /veh VPS37D (11726825_at) / RFU C10orf10 (11716522_x_at) / Fold change /veh C10orf10 (11716522_x_at) / RFU KIR2DL2 /// KIR2DL4 /// KIR2DL5A /// KIR2DL5B /// KIR2DS1 /// KIR2DS2 /// KIR2DS3 /// KIR2DS4 /// KIR3DL3 /// KIR3DL3 /// KIR3DS1 (11738374_at) / Fold change /veh KIR2DL2 /// KIR2DL4 /// KIR2DL5A /// KIR2DL5B /// KIR2DS1 /// KIR2DS2 /// KIR2DS3 /// KIR2DS4 /// KIR3DL3 /// KIR3DL3 /// KIR3DS1 (11738374_at) / RFU C1QL1 (11718748_at) / Fold change /veh C1QL1 (11718748_at) / RFU TMPRSS4 (11747572_a_at) / Fold change /veh TMPRSS4 (11747572_a_at) / RFU HAMP (11756126_x_at) / Fold change /veh HAMP (11756126_x_at) / RFU RNFT2 (11725882_a_at) / Fold change /veh RNFT2 (11725882_a_at) / RFU NR4A2 (11747474_a_at) / Fold change /veh NR4A2 (11747474_a_at) / RFU ABCC12 (11746883_a_at) / Fold change /veh ABCC12 (11746883_a_at) / RFU TMEM136 (11760407_x_at) / Fold change /veh TMEM136 (11760407_x_at) / RFU CLDN22 /// WWC2 (11732394_at) / Fold change /veh CLDN22 /// WWC2 (11732394_at) / RFU HLA-DPB1 (11760878_x_at) / Fold change /veh HLA-DPB1 (11760878_x_at) / RFU SPINT1 (11716480_a_at) / Fold change /veh SPINT1 (11716480_a_at) / RFU GAP43 (11754022_s_at) / Fold change /veh GAP43 (11754022_s_at) / RFU A4GNT (11735810_at) / Fold change /veh A4GNT (11735810_at) / RFU PRB3 (11715151_x_at) / Fold change /veh PRB3 (11715151_x_at) / RFU TUBB4B (11761932_at) / Fold change /veh TUBB4B (11761932_at) / RFU CAPN14 (11732068_a_at) / Fold change /veh CAPN14 (11732068_a_at) / RFU TMCC2 (11721928_a_at) / Fold change /veh TMCC2 (11721928_a_at) / RFU IRGQ (11745062_a_at) / Fold change /veh IRGQ (11745062_a_at) / RFU FAM174B (11720279_a_at) / Fold change /veh FAM174B (11720279_a_at) / RFU TMPRSS4 (11748680_a_at) / Fold change /veh TMPRSS4 (11748680_a_at) / RFU FAM212B (11763350_a_at) / Fold change /veh FAM212B (11763350_a_at) / RFU PLEKHG5 (11743358_a_at) / Fold change /veh PLEKHG5 (11743358_a_at) / RFU ZSCAN30 (11745921_a_at) / Fold change /veh ZSCAN30 (11745921_a_at) / RFU CMKLR1 (11741424_a_at) / Fold change /veh CMKLR1 (11741424_a_at) / RFU LOC101060620 /// MAPK8IP1 (11723275_at) / Fold change /veh LOC101060620 /// MAPK8IP1 (11723275_at) / RFU SPTSSB (11747773_x_at) / Fold change /veh SPTSSB (11747773_x_at) / RFU PRSS12 (11739890_at) / Fold change /veh PRSS12 (11739890_at) / RFU BIN1 (11741810_x_at) / Fold change /veh BIN1 (11741810_x_at) / RFU WNT11 (11732464_a_at) / Fold change /veh WNT11 (11732464_a_at) / RFU C10orf10 (11716521_a_at) / Fold change /veh C10orf10 (11716521_a_at) / RFU C5orf56 (11738089_at) / Fold change /veh C5orf56 (11738089_at) / RFU CYB561 (11721691_x_at) / Fold change /veh CYB561 (11721691_x_at) / RFU ANKRD19P (11752326_a_at) / Fold change /veh ANKRD19P (11752326_a_at) / RFU OR2T12 /// OR2T33 /// OR2T8 (11738714_s_at) / Fold change /veh OR2T12 /// OR2T33 /// OR2T8 (11738714_s_at) / RFU VCAN (11748164_a_at) / Fold change /veh VCAN (11748164_a_at) / RFU JSRP1 (11732532_at) / Fold change /veh JSRP1 (11732532_at) / RFU KRTAP10-11 (11738290_x_at) / Fold change /veh KRTAP10-11 (11738290_x_at) / RFU MYO3A (11730013_a_at) / Fold change /veh MYO3A (11730013_a_at) / RFU EBF3 (11725865_a_at) / Fold change /veh EBF3 (11725865_a_at) / RFU CAMK2N1 (11719241_x_at) / Fold change /veh CAMK2N1 (11719241_x_at) / RFU C5orf56 (11738088_a_at) / Fold change /veh C5orf56 (11738088_a_at) / RFU OLFML3 (11715873_a_at) / Fold change /veh OLFML3 (11715873_a_at) / RFU LOC100653217 /// NTM (11731650_a_at) / Fold change /veh LOC100653217 /// NTM (11731650_a_at) / RFU MAPK11 (11762145_a_at) / Fold change /veh MAPK11 (11762145_a_at) / RFU FIZ1 (11724087_x_at) / Fold change /veh FIZ1 (11724087_x_at) / RFU OASL (11726364_x_at) / Fold change /veh OASL (11726364_x_at) / RFU SOX15 (11748057_x_at) / Fold change /veh SOX15 (11748057_x_at) / RFU CD79A (11719716_a_at) / Fold change /veh CD79A (11719716_a_at) / RFU HIST1H1D (11736915_at) / Fold change /veh HIST1H1D (11736915_at) / RFU CASKIN2 (11723855_a_at) / Fold change /veh CASKIN2 (11723855_a_at) / RFU LOC730098 (11760151_x_at) / Fold change /veh LOC730098 (11760151_x_at) / RFU OR4N2 (11742367_at) / Fold change /veh OR4N2 (11742367_at) / RFU PRRT2 (11749266_a_at) / Fold change /veh PRRT2 (11749266_a_at) / RFU SNX32 (11753110_a_at) / Fold change /veh SNX32 (11753110_a_at) / RFU CDHR5 (11726645_a_at) / Fold change /veh CDHR5 (11726645_a_at) / RFU RCAN1 (11760418_a_at) / Fold change /veh RCAN1 (11760418_a_at) / RFU FAM167A (11723789_a_at) / Fold change /veh FAM167A (11723789_a_at) / RFU FAM26E (11764081_at) / Fold change /veh FAM26E (11764081_at) / RFU ISYNA1 (11749810_s_at) / Fold change /veh ISYNA1 (11749810_s_at) / RFU ACY1 (11761880_at) / Fold change /veh ACY1 (11761880_at) / RFU 11764098_at / Fold change /veh 11764098_at / RFU SAMD14 (11745864_x_at) / Fold change /veh SAMD14 (11745864_x_at) / RFU NPB (11741838_a_at) / Fold change /veh NPB (11741838_a_at) / RFU TMPRSS6 (11731388_a_at) / Fold change /veh TMPRSS6 (11731388_a_at) / RFU KRTAP10-2 (11738614_at) / Fold change /veh KRTAP10-2 (11738614_at) / RFU ARHGAP8 /// PRR5-ARHGAP8 (11727945_x_at) / Fold change /veh ARHGAP8 /// PRR5-ARHGAP8 (11727945_x_at) / RFU KRTAP5-7 /// NADSYN1 (11734609_at) / Fold change /veh KRTAP5-7 /// NADSYN1 (11734609_at) / RFU RASL12 (11751679_a_at) / Fold change /veh RASL12 (11751679_a_at) / RFU CDKN2B (11736163_a_at) / Fold change /veh CDKN2B (11736163_a_at) / RFU PRF1 (11729649_at) / Fold change /veh PRF1 (11729649_at) / RFU, ZNF638 /// ZNF638-IT1 / Fold change vs veh, ZNF638 /// ZNF638-IT1 / RFU, PANK3 / Fold change vs veh, PANK3 / RFU, SH3YL1 / Fold change vs veh, SH3YL1 / RFU, ZEB2 / Fold change vs veh, ZEB2 / RFU, NRIP1 / Fold change vs veh, NRIP1 / RFU, PTTG1IP / Fold change vs veh, PTTG1IP / RFU, CAPN2 / Fold change vs veh, CAPN2 / RFU, MED14 / Fold change vs veh, MED14 / RFU, SNORA58 / Fold change vs veh, SNORA58 / RFU, C1orf63 / Fold change vs veh, C1orf63 / RFU, LRRFIP1 / Fold change vs veh, LRRFIP1 / RFU, NDUFAF7 / Fold change vs veh, NDUFAF7 / RFU, SLC12A2 / Fold change vs veh, SLC12A2 / RFU, IBTK / Fold change vs veh, IBTK / RFU, ESF1 / Fold change vs veh, ESF1 / Fold change vs veh, TMEM50B / RFU, TAOK1 / Fold change vs veh, TAOK1 / RFU, ACBD3 / Fold change vs veh, ACBD3 / RFU, TMA16 / Fold change vs veh, TMA16 / RFU, RWDD3 / Fold change vs veh, RWDD3 / RFU, BCAT1 / Fold change vs veh, BCAT1 / RFU, EDEM3 / Fold change vs veh, EDEM3 / RFU, TMEM33 / Fold change vs veh, TMEM33 / RFU, WDR75 / Fold change vs veh, WDR75 / RFU, AHCTF1 / Fold change vs veh, AHCTF1 / RFU, TFRC / Fold change vs veh, TFRC / RFU, ZDHHC17 / Fold change vs veh, ZDHHC17 / RFU, NOM1 / Fold change vs veh, NOM1 / RFU, ARL8B / Fold change vs veh, ARL8B / RFU, ZBTB11 / Fold change vs veh, ZBTB11 / RFU, TAMM41 / Fold change vs veh, TAMM41 / RFU, KIAA1704 /// LOC100996395 / Fold change vs veh, KIAA1704 /// LOC100996395 / RFU, ING1 / Fold change vs veh, ING1 / RFU, TRMT61B / Fold change vs veh, TRMT61B / RFU, FUBP3 / Fold change vs veh, FUBP3 / RFU, TP53 / Fold change vs veh, TP53 / RFU, TNKS2 / Fold change vs veh, TNKS2 / RFU, ZFP14 / Fold change vs veh, ZFP14 / RFU, ACTR2 / Fold change vs veh, ACTR2 / RFU, PPP3R1 / Fold change vs veh, PPP3R1 / RFU, PIK3R1 / Fold change vs veh, PIK3R1 / RFU, HNRNPA1 / Fold change vs veh, HNRNPA1 / RFU, RNF170 / Fold change vs veh, RNF170 / RFU, ZNF28 / Fold change vs veh, ZNF28 / RFU, RNGTT / Fold change vs veh, RNGTT / RFU, OGT / Fold change vs veh, OGT / RFU, BRD1 / Fold change vs veh, BRD1 / RFU, MARS / Fold change vs veh, MARS / RFU, ZNF655 / Fold change vs veh, ZNF655 / RFU, FAHD1 / Fold change vs veh, FAHD1 / RFU, BDP1 / Fold change vs veh, BDP1 / RFU, LRRCC1 / Fold change vs veh, LRRCC1 / RFU, ARID1A / Fold change vs veh, ARID1A / RFU, ZNF146 / Fold change vs veh, ZNF146 / RFU, ZNF330 / Fold change vs veh, ZNF330 / RFU, GPN3 / Fold change vs veh, GPN3 / RFU, C9orf123 / Fold change vs veh, C9orf123 / RFU, N4BP2L2 / Fold change vs veh, N4BP2L2 / RFU, ARFIP1 / Fold change vs veh, ARFIP1 / RFU, FAM179B / Fold change vs veh, FAM179B / RFU, BCL10 / Fold change vs veh, BCL10 / RFU, UHRF1BP1L / Fold change vs veh, UHRF1BP1L / RFU, BET1 / Fold change vs veh, BET1 / RFU, CNOT2 / Fold change vs veh, CNOT2 / RFU, ZNF268 / Fold change vs veh, ZNF268 / Fold change vs veh, ZNF507 / RFU, DGCR2 / Fold change vs veh, DGCR2 / RFU, WDSUB1 / Fold change vs veh, WDSUB1 / Fold change vs veh, HSP90B1 /// MIR3652 / RFU, ADSS / Fold change vs veh, ADSS / RFU, GK / Fold change vs veh, GK / RFU, ZNF148 / Fold change vs veh, ZNF148 / RFU, TAF9 / Fold change vs veh, TAF9 / RFU, SLC1A5 / Fold change vs veh, SLC1A5 / RFU, SLMO2 / Fold change vs veh, SLMO2 / RFU, ABCC4 / Fold change vs veh, ABCC4 / RFU, LOC101060439 /// RAP1B / Fold change vs veh, LOC101060439 /// RAP1B / RFU, RFX7 / Fold change vs veh, RFX7 / RFU, GTPBP10 / Fold change vs veh, GTPBP10 / RFU, CNEP1R1 / Fold change vs veh, CNEP1R1 / RFU, BIVM-ERCC5 /// ERCC5 / Fold change vs veh, BIVM-ERCC5 /// ERCC5 / RFU, ILF3 / Fold change vs veh, ILF3 / RFU 11762660_at / Fold change /veh 11762660_at / RFU VCAN (11757783_s_at) / Fold change /veh VCAN (11757783_s_at) / RFU DDX43 (11728927_at) / Fold change /veh DDX43 (11728927_at) / RFU KRT8 (11758188_x_at) / Fold change /veh KRT8 (11758188_x_at) / RFU NKD1 (11759106_at) / Fold change /veh NKD1 (11759106_at) / RFU SRD5A1 (11742802_a_at) / Fold change /veh SRD5A1 (11742802_a_at) / RFU TPSAB1 /// TPSB2 (11721975_s_at) / Fold change /veh TPSAB1 /// TPSB2 (11721975_s_at) / RFU GSTM3 (11746129_a_at) / Fold change /veh GSTM3 (11746129_a_at) / RFU IL23R (11737362_x_at) / Fold change /veh IL23R (11737362_x_at) / RFU TMEM51 (11727254_a_at) / Fold change /veh TMEM51 (11727254_a_at) / RFU PIWIL2 (11732686_x_at) / Fold change /veh PIWIL2 (11732686_x_at) / RFU ORM1 (11744905_x_at) / Fold change /veh ORM1 (11744905_x_at) / RFU CCDC152 (11743942_at) / Fold change /veh CCDC152 (11743942_at) / RFU ECM1 (11717891_a_at) / Fold change /veh ECM1 (11717891_a_at) / RFU IL23R (11748794_a_at) / Fold change /veh IL23R (11748794_a_at) / RFU TNFAIP8L3 (11732012_x_at) / Fold change /veh TNFAIP8L3 (11732012_x_at) / RFU MBOAT4 (11741988_at) / Fold change /veh MBOAT4 (11741988_at) / RFU 11764193_at / Fold change /veh 11764193_at / RFU TMEM53 (11763286_at) / Fold change /veh TMEM53 (11763286_at) / RFU MAGEB2 (11727129_at) / Fold change /veh MAGEB2 (11727129_at) / RFU TMEM200A (11744735_a_at) / Fold change /veh TMEM200A (11744735_a_at) / RFU CCDC152 (11751479_a_at) / Fold change /veh CCDC152 (11751479_a_at) / RFU FAM211A (11726209_a_at) / Fold change /veh FAM211A (11726209_a_at) / RFU RGS16 (11746705_a_at) / Fold change /veh RGS16 (11746705_a_at) / RFU VCAN (11755009_s_at) / Fold change /veh VCAN (11755009_s_at) / RFU RHOB (11743442_s_at) / Fold change /veh RHOB (11743442_s_at) / RFU RGS16 (11720943_a_at) / Fold change /veh RGS16 (11720943_a_at) / RFU RGS16 (11720944_at) / Fold change /veh RGS16 (11720944_at) / RFU, VPS4B / Fold change vs veh, VPS4B / RFU, CREB1 / Fold change vs veh, CREB1 / RFU, DNAJC13 / Fold change vs veh, DNAJC13 / RFU, GNAQ / Fold change vs veh, GNAQ / RFU, CDK5R1 / Fold change vs veh, CDK5R1 / RFU, ZRANB3 / Fold change vs veh, ZRANB3 / RFU, CUL4A / Fold change vs veh, CUL4A / RFU, CCNY / Fold change vs veh, CCNY / RFU, UFL1 / Fold change vs veh, UFL1 / RFU, COG3 / Fold change vs veh, COG3 / RFU, DIAPH2 / Fold change vs veh, DIAPH2 / RFU, SKA2 / Fold change vs veh, SKA2 / RFU, AFF3 / Fold change vs veh, AFF3 / RFU, LMF1 / Fold change vs veh, LMF1 / RFU, IPO11 / Fold change vs veh, IPO11 / RFU, DFFB / Fold change vs veh, DFFB / RFU, FOXP1 / Fold change vs veh, FOXP1 / RFU, CARD8 / Fold change vs veh, CARD8 / RFU, STRN3 / Fold change vs veh, STRN3 / RFU, ADK / Fold change vs veh, ADK / RFU, RASSF2 / Fold change vs veh, RASSF2 / RFU, WIPF1 / Fold change vs veh, WIPF1 / RFU, LARP1B / Fold change vs veh, LARP1B / RFU, RASA1 / Fold change vs veh, RASA1 / RFU, RB1 / Fold change vs veh, RB1 / RFU, PPFIA1 / Fold change vs veh, PPFIA1 / RFU, MAT2A / Fold change vs veh, MAT2A / RFU, CCT5 / Fold change vs veh, CCT5 / RFU, WDR92 / Fold change vs veh, WDR92 / RFU, CUX1 / Fold change vs veh, CUX1 / RFU, TTC7A / Fold change vs veh, TTC7A / RFU, TMEM135 / Fold change vs veh, TMEM135 / RFU, DEPTOR / Fold change vs veh, DEPTOR / RFU, CPM / Fold change vs veh, CPM / RFU, DNAJB6 / Fold change vs veh, DNAJB6 / RFU, CACNA2D3 / Fold change vs veh, CACNA2D3 / RFU, DTX4 / Fold change vs veh, DTX4 / RFU, TFCP2 / Fold change vs veh, TFCP2 / RFU, GMCL1 /// GMCL1P1 / Fold change vs veh, GMCL1 /// GMCL1P1 / RFU, AEBP2 / Fold change vs veh, AEBP2 / RFU, SNHG1 /// SNORD22 /// SNORD25 /// SNORD26 /// SNORD27 /// SNORD28 /// SNORD29 /// SNORD31 / Fold change vs veh, SNHG1 /// SNORD22 /// SNORD25 /// SNORD26 /// SNORD27 /// SNORD28 /// SNORD29 /// SNORD31 / Fold change (Aza/veh), C12orf56 (ProbeSet 11735607_a_at) / Fold change (ACY-1035/veh), C12orf56 (ProbeSet 11735607_a_at) / Fold change (Aza/veh), FGFR1OP (ProbeSet 11751329_s_at) / Fold change (ACY-1035/veh), FGFR1OP (ProbeSet 11751329_s_at) / Fold change (Aza/veh), VPS36 (ProbeSet 11739960_a_at) / Fold change (ACY-1035/veh), VPS36 (ProbeSet 11739960_a_at) / RFU SYPL1 (11715823_x_at) / Fold change /veh SYPL1 (11715823_x_at) / RFU IGFBP7 (11715501_s_at) / Fold change /veh IGFBP7 (11715501_s_at) / RFU REEP3 (11722064_at) / Fold change /veh REEP3 (11722064_at) / RFU IGLL1 (11728026_x_at) / Fold change /veh IGLL1 (11728026_x_at): dose or concentration left out as unconfirmed
Details: ProbeSet 11721969_s_at; LIST B

Nc1ncn([C@@H]2O[C@H](CO)[C@@H](O)[C@H]2O)c(=O)n1 [azacitidine]
Fold change vs veh, BDP1: 0.86
